The experiment addresses Fibroblast growth factor receptor 3 (Homo sapiens, UniProt P22607). Briefly: Inhibition of N-terminal GST-fused human FGFR3 cytoplasmic domain (436 to 806(end) amino acids) using CSKtide substrate incubated for 90 mins.

Sequence of Fibroblast growth factor receptor 3 (P22607 whole entry, the tested form may be a part): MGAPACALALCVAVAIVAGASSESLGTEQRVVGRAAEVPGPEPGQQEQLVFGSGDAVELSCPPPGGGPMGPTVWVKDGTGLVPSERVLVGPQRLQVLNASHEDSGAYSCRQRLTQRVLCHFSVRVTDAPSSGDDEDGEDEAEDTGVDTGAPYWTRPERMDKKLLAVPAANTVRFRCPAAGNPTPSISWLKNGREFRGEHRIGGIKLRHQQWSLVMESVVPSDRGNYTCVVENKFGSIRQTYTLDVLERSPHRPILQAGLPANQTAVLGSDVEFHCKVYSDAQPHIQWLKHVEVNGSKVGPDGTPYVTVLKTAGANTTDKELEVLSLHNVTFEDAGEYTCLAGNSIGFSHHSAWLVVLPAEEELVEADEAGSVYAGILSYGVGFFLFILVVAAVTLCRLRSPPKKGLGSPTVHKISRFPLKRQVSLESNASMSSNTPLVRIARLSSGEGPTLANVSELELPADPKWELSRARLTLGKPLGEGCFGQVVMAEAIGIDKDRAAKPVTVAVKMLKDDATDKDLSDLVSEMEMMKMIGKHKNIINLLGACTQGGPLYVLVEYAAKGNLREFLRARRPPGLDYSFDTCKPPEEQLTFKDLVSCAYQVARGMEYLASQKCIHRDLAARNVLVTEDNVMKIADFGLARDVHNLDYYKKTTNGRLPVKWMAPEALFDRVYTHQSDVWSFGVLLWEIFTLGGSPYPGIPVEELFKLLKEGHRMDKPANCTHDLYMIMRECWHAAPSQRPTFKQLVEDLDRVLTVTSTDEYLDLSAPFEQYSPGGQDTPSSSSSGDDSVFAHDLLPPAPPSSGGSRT

Broadly, the IC50 is the midpoint of a concentration-inhibition curve. Take `C=CC(=O)Nc1cccc(C)c1Nc1ncc2cc(-c3c(Cl)c(OC)cc(OC)c3Cl)ccc2n1`: half-maximal inhibition (IC50) required 150 nM. This lies in the sub-micromolar range.

Values taken from ChEMBL document CHEMBL4400505, “Fibroblast Growth Factor Receptor 4 (FGFR4) Selective Inhibitors as Hepatocellular Carcinoma Therapy: Advances and Prospects” (J Med Chem, 2019).
